Like-named read-outs stand apart in the source and are kept apart here.
Tests used:
[1] = tested on: HLA-E restricted CD8 T cells; conditions: at euthanasia, GA treated animal versus chronically SIV infected AGM
HLA-E on CD4 T cells = tested on: HLA-E on CD4 T cells
Text: Follow-up of the percentage of CD4 T cells expressing MHC-E on their surface (FIG. 7D).

[2] = tested on: CD32a^high CD4 T cells expressing HLA-E; conditions: spleen, 2 macaques treated with GA
Text: FIG. 10A) Flow cytometry dot plots. CD32a^highHLA-E^+ CD4^+ T cells from AGM and macaques are shown in blue. […] MAC=macaque.

[3] = MS patients treated with GA for >10 years; cited from earlier work
[4] = tested on: HLA-E restricted (NKG2A/C+) NK cells; conditions: at around day 25, chronically SIV-infected GA treated macaques, versus 20%
SIVmac251 = conditions: two weeks treatment with GA, in less than 2 months, chronic SIV infection, no anti-retroviral therapy, pilot study with 2 animals
Protocol: Correlation between the plasma viral load and the classical CD8 T cells (FIG. 9B) and with the HLA-E restricted CD8 T cells (FIG. 9C) were evaluated. The Spearman coefficients (r) and p-values are indicated.

[5] = tested on: HLA-E restricted CD8 T cells; conditions: at around day 25, chronically SIV-infected GA treated macaques, versus 20%
pathogenic CD4 T cells = conditions: in vivo; cited from earlier work

## L-glutamic acid polymer with L-alanine, L-lysine and L-tyrosine, acetate (salt) [GA]
[1]
  levels of HLA-E restricted CD8 T cells in the intestine: comparable levels or even higher to those in AGM
HLA-E on CD4 T cells; animal the most advanced in disease, no HLA-E before treatment, continued to increase after treatment cessation
  expression of HLA-E on CD4 T cells: increase HLA-E levels
HLA-E on CD4 T cells; animal with already very high expression before treatment
  expression of HLA-E on CD4 T cells: remained as high
[2]
  effect on latently infected cells (CD32a^high CD4 T): targets CD32a^high CD4 T cells expressing HLA-E
[3]
  efficacy: long-term efficacy
[4]
  CD107a on NK cells: 60%
SIVmac251
  decrease of viremia: ≤ 2 logs
[5]
  CD107a on HLA-E restricted CD8 T cells: 60%
Pathogenic CD4 T cells
  efficacy in mouse model of inflammatory bowel diseases: efficient

Source: patent US10815540B2, “Treatments to eliminate HIV reservoirs and reduce viral load” (INSTITUT PASTEUR, priority 2017, dated 2020)
